In patent US10149879B2 (priority 2014, dated 2018):

Assays:
βTC6 insulinoma cell [1] = assay: Cell viability assay in βTC6 insulinoma cell line; assay type: cell-based; settings: βTC6, control 100.00
Description: Cell Viability Assay in βTC6 Insulinoma Cell Lime Following—

βTC6 insulinoma cell [2] = assay: Anti-oxidant activity in βTC6 insulinoma cell challenged with H2O2; assay type: cell-based; design: Anti-oxidant activity, cells challenged with H2O2: unit not given here; settings: for Anti-oxidant activity, cells challenged with H2O2: βTC6
Description: Anti-Oxidant Activity in βTC6 Insulinoma Cell Challenged with H2O2 Berberin and Quercetin—
Anti-Oxidant Activity in βTC6 Insulinoma Cell Challenged with H2O2 Berberin and Palmatine—

3T3-L1 cells [3] = assay: Anti-oxidant activity in 3T3-L1 cells challenged with H2O2; assay type: cell-based; design: Anti-oxidant activity, cells challenged with H2O2: scale not given here; settings: for Anti-oxidant activity, cells challenged with H2O2: 3T3-L1; for protection against H2O2 induced cellular oxidative damage: 3T3-L1 cells
Description: Anti-Oxidant Activity in 3T3-L1 Cells Challenged with H2O2 Berberin and Palmatine
Anti-Oxidant Activity in 3T3-L1 Cells Challenged with H2O2 Berberin and Quercetin

L6 cells = assay: Anti-oxidant activity in L6 cells challenged with H2O2; assay type: cell-based; design: Anti-oxidant activity, cells challenged with H2O2: unit not given here; settings: for Anti-oxidant activity, cells challenged with H2O2: L6; for protection against H2O2 induced cellular oxidative damage: L6 cells
Description: Anti-Oxidant Activity in L6 Cells Challenged with H2O2 Berberin and Palmatine
Anti-Oxidant Activity in L6 Cells Challenged with H2O2—Berberin and Quercetin

L6-myotubes = assay: Anti-diabetic activity (glucose consumption) in L6-myotubes; assay type: cell-based; design: Anti-diabetic activity (glucose consumption): unit not given here; settings: for Anti-diabetic activity (glucose consumption): L6-myotubes, control 1.00
3T3-L1 cells [4] = assay: Cell viability assay in 3T3-L1 cells; settings: for Cell viability: 3T3-L1, control 100.00
[5] = comparison with positive standard

COc1cc2c(cc1OC)-c1cc3ccc(OC)c(OC)c3c[n+]1CC2 [Palmatine]
Cell viability (βTC6 insulinoma cell [1]; 1 pM): 97.96 ± 1.10
Cell viability (βTC6 insulinoma cell [1]; 10 pM): 97.50 ± 2.05
Cell viability (βTC6 insulinoma cell [1]; 100 pM): 96.52 ± 2.70
Cell viability (βTC6 insulinoma cell [1]; 1 nM): 94.80 ± 1.32
Cell viability (βTC6 insulinoma cell [1]; 10 nM): 91.66 ± 1.60
Cell viability (βTC6 insulinoma cell [1]; 100 nM): 84.45 ± 1.30
Cell viability (βTC6 insulinoma cell [1]; 1 μM): 83.20 ± 1.90
Cell viability (βTC6 insulinoma cell [1]; 10 μM): 81.98 ± 1.70
Anti-oxidant activity, cells challenged with H2O2 (βTC6 insulinoma cell [2]; Co-incubated, 1 pM, control 55.54): 56.95 ± 3.60
Anti-oxidant activity, cells challenged with H2O2 (βTC6 insulinoma cell [2]; Co-incubated, 10 pM, control 55.54): 57.04 ± 2.00
Anti-oxidant activity, cells challenged with H2O2 (βTC6 insulinoma cell [2]; Co-incubated, 0.1 nM, control 55.54): 60.10 ± 1.41
Anti-oxidant activity, cells challenged with H2O2 (βTC6 insulinoma cell [2]; Co-incubated, 1 nM, control 55.54): 61.75 ± 2.16
Anti-oxidant activity, cells challenged with H2O2 (βTC6 insulinoma cell [2]; Co-incubated, 10 nM, control 55.54): 65.83 ± 0.81
Anti-oxidant activity, cells challenged with H2O2 (βTC6 insulinoma cell [2]; Pre-incubated, 1 pM, control 55.54): 55.32 ± 1.48
Anti-oxidant activity, cells challenged with H2O2 (βTC6 insulinoma cell [2]; Pre-incubated, 10 pM, control 55.54): 61.67 ± 2.10
Anti-oxidant activity, cells challenged with H2O2 (βTC6 insulinoma cell [2]; Pre-incubated, 0.1 nM, control 55.54): 65.18 ± 1.95
Anti-oxidant activity, cells challenged with H2O2 (βTC6 insulinoma cell [2]; Pre-incubated, 1 nM, control 55.54): 67.05 ± 2.40
Anti-oxidant activity, cells challenged with H2O2 (βTC6 insulinoma cell [2]; Pre-incubated, 10 nM, control 55.54): 69.58 ± 2.55
anti-oxidant activity (βTC6 insulinoma cell [2]; βTC6 cells challenged with hydrogen peroxide): potent anti-oxidant activity
protection against H2O2 induced cellular oxidative damage (βTC6 insulinoma cell [2]; βTC6 insulinoma cells): Mild Protection
Anti-oxidant activity, cells challenged with H2O2 (3T3-L1 cells [3]; Co-incubated, 10 pM, control 50.00): 54.85 ± 2.20
Anti-oxidant activity, cells challenged with H2O2 (3T3-L1 cells [3]; Co-incubated, 100 pM, control 50.00): 57.18 ± 1.20
Anti-oxidant activity, cells challenged with H2O2 (3T3-L1 cells [3]; Co-incubated, 1 nM, control 50.00): 59.87 ± 2.70
Anti-oxidant activity, cells challenged with H2O2 (3T3-L1 cells [3]; Co-incubated, 10 nM, control 50.00): 63.00 ± 1.10
Anti-oxidant activity, cells challenged with H2O2 (3T3-L1 cells [3]; Co-incubated, 100 nM, control 50.00): 65.75 ± 1.40
Anti-oxidant activity, cells challenged with H2O2 (3T3-L1 cells [3]; Pre-incubated, 10 pM, control 50.00): 53.18 ± 3.25
Anti-oxidant activity, cells challenged with H2O2 (3T3-L1 cells [3]; Pre-incubated, 100 pM, control 50.00): 55.13 ± 1.50
Anti-oxidant activity, cells challenged with H2O2 (3T3-L1 cells [3]; Pre-incubated, 1 nM, control 50.00): 57.00 ± 1.25
Anti-oxidant activity, cells challenged with H2O2 (3T3-L1 cells [3]; Pre-incubated, 10 nM, control 50.00): 61.40 ± 0.25
Anti-oxidant activity, cells challenged with H2O2 (3T3-L1 cells [3]; Pre-incubated, 100 nM, control 50.00): 67.25 ± 2.25
protection against H2O2 induced cellular oxidative damage (3T3-L1 cells [3]; pM-nM doses): mild protection
Anti-oxidant activity, cells challenged with H2O2 (L6 cells; Co-incubated, 10 pM, control 60.10): 56.13 ± 6.40
Anti-oxidant activity, cells challenged with H2O2 (L6 cells; Co-incubated, 100 pM, control 60.10): 60.50 ± 5.50
Anti-oxidant activity, cells challenged with H2O2 (L6 cells; Co-incubated, 1 nM, control 60.10): 63.91 ± 5.04
Anti-oxidant activity, cells challenged with H2O2 (L6 cells; Co-incubated, 10 nM, control 60.10): 67.53 ± 8.12
Anti-oxidant activity, cells challenged with H2O2 (L6 cells; Co-incubated, 100 nM, control 60.10): 71.70 ± 6.16
Anti-oxidant activity, cells challenged with H2O2 (L6 cells; Pre-incubated, 10 pM, control 60.10): 58.70 ± 4.70
Anti-oxidant activity, cells challenged with H2O2 (L6 cells; Pre-incubated, 100 pM, control 60.10): 63.30 ± 3.16
Anti-oxidant activity, cells challenged with H2O2 (L6 cells; Pre-incubated, 1 nM, control 60.10): 66.12 ± 5.85
Anti-oxidant activity, cells challenged with H2O2 (L6 cells; Pre-incubated, 10 nM, control 60.10): 66.70 ± 3.12
Anti-oxidant activity, cells challenged with H2O2 (L6 cells; Pre-incubated, 100 nM, control 60.10): 70.00 ± 5.95
protection against H2O2 induced cellular oxidative damage (L6 cells; pM-nM doses): mild protection
Anti-diabetic activity (glucose consumption) (L6-myotubes; 1 nM): 1.58 ± 0.10
Anti-diabetic activity (glucose consumption) (L6-myotubes; 5 nM): 1.78 ± 1.10
Anti-diabetic activity (glucose consumption) (L6-myotubes; 25 nM): 2.12 ± 0.09
Anti-diabetic activity (glucose consumption) (L6-myotubes; 125 nM): 2.35 ± 0.12
Anti-diabetic activity (glucose consumption) (L6-myotubes; 625 nM): 2.60 ± 0.10
glucose consumption (L6-myotubes; differentiated L6-myotubes, dose dependent): accelerated glucose consumption
Cell viability (3T3-L1 cells [4]; 10 pM): 100.00 ± 0.10
Cell viability (3T3-L1 cells [4]; 100 pM): 99.99 ± 0.54
Cell viability (3T3-L1 cells [4]; 1 nM): 99.45 ± 0.48
Cell viability (3T3-L1 cells [4]; 10 nM): 98.30 ± 1.80
Cell viability (3T3-L1 cells [4]; 100 nM): 98.90 ± 1.06
Cell viability (3T3-L1 cells [4]; 1 μM): 95.15 ± 1.58
Cell viability (3T3-L1 cells [4]; 10 μM): 89.26 ± 1.30
Cell viability (3T3-L1 cells [4]; 100 μM): 83.10 ± 1.67
toxicity to the cell (3T3-L1 cells [4]; 3T3-L1 cells, 1 μM): non-toxic

O=c1c(O)c(-c2ccc(O)c(O)c2)oc2cc(O)cc(O)c12 [Quercetin]
Anti-oxidant activity, cells challenged with H2O2 (βTC6 insulinoma cell [2]; Co-incubated, 0.1 pM, control 55.64): 60.31 ± 2.71
Anti-oxidant activity, cells challenged with H2O2 (βTC6 insulinoma cell [2]; Co-incubated, 1 pM, control 55.64): 67.11 ± 2.71
Anti-oxidant activity, cells challenged with H2O2 (βTC6 insulinoma cell [2]; Co-incubated, 10 pM, control 55.64): 70.10 ± 2.30
Anti-oxidant activity, cells challenged with H2O2 (βTC6 insulinoma cell [2]; Co-incubated, 100 pM, control 55.64): 80.72 ± 1.20
Anti-oxidant activity, cells challenged with H2O2 (βTC6 insulinoma cell [2]; Co-incubated, 1 nM, control 55.64): 90.44 ± 1.94
Anti-oxidant activity, cells challenged with H2O2 (βTC6 insulinoma cell [2]; Pre-incubated, 0.1 pM, control 55.64): 64.00 ± 2.10
Anti-oxidant activity, cells challenged with H2O2 (βTC6 insulinoma cell [2]; Pre-incubated, 1 pM, control 55.64): 68.38 ± 1.79
Anti-oxidant activity, cells challenged with H2O2 (βTC6 insulinoma cell [2]; Pre-incubated, 10 pM, control 55.64): 77.51 ± 2.06
Anti-oxidant activity, cells challenged with H2O2 (βTC6 insulinoma cell [2]; Pre-incubated, 100 pM, control 55.64): 81.63 ± 1.50
Anti-oxidant activity, cells challenged with H2O2 (βTC6 insulinoma cell [2]; Pre-incubated, 1 nM, control 55.64): 87.59 ± 1.95
Anti-oxidant activity, cells challenged with H2O2 (3T3-L1 cells [3]; Co-incubated, 0.1 pM, control 50.00): 57.30 ± 1.70
Anti-oxidant activity, cells challenged with H2O2 (3T3-L1 cells [3]; Co-incubated, 1 pM, control 50.00): 65.00 ± 2.75
Anti-oxidant activity, cells challenged with H2O2 (3T3-L1 cells [3]; Co-incubated, 10 pM, control 50.00 ± 0.40): 68.01 ± 2.75
Anti-oxidant activity, cells challenged with H2O2 (3T3-L1 cells [3]; Co-incubated, 100 pM, control 50.00 ± 0.40): 78.70 ± 3.50
Anti-oxidant activity, cells challenged with H2O2 (3T3-L1 cells [3]; Co-incubated, 1 nM, control 50.00 ± 0.40): 88.40 ± 1.90
Anti-oxidant activity, cells challenged with H2O2 (3T3-L1 cells [3]; Pre-incubated, 0.1 pM, control 50.00): 61.00 ± 3.00
Anti-oxidant activity, cells challenged with H2O2 (3T3-L1 cells [3]; Pre-incubated, 1 pM, control 50.00): 65.00 ± 1.70
Anti-oxidant activity, cells challenged with H2O2 (3T3-L1 cells [3]; Pre-incubated, 10 pM, control 50.00 ± 0.40): 75.15 ± 2.99
Anti-oxidant activity, cells challenged with H2O2 (3T3-L1 cells [3]; Pre-incubated, 100 pM, control 50.00 ± 0.40): 88.60 ± 2.60
Anti-oxidant activity, cells challenged with H2O2 (3T3-L1 cells [3]; Pre-incubated, 1 nM, control 50.00 ± 0.40): 94.15 ± 1.70
protection against H2O2 induced cellular oxidative damage (3T3-L1 cells [3]; [5]): superior even at lower concentration
Anti-oxidant activity, cells challenged with H2O2 (L6 cells; Co-incubated, 0.1 pM, control 61.10): 57.50 ± 1.80
Anti-oxidant activity, cells challenged with H2O2 (L6 cells; Co-incubated, 1 pM, control 61.10): 65.05 ± 2.80
Anti-oxidant activity, cells challenged with H2O2 (L6 cells; Co-incubated, 10 pM, control 61.10): 70.36 ± 2.96
Anti-oxidant activity, cells challenged with H2O2 (L6 cells; Co-incubated, 100 pM, control 61.10): 78.18 ± 2.99
Anti-oxidant activity, cells challenged with H2O2 (L6 cells; Co-incubated, 1 nM, control 61.10): 88.64 ± 1.99
Anti-oxidant activity, cells challenged with H2O2 (L6 cells; Pre-incubated, 0.1 pM, control 61.10): 63.60 ± 1.50
Anti-oxidant activity, cells challenged with H2O2 (L6 cells; Pre-incubated, 1 pM, control 61.10): 68.02 ± 1.40
Anti-oxidant activity, cells challenged with H2O2 (L6 cells; Pre-incubated, 10 pM, control 61.10): 75.12 ± 3.50
Anti-oxidant activity, cells challenged with H2O2 (L6 cells; Pre-incubated, 100 pM, control 61.10): 87.90 ± 1.60
Anti-oxidant activity, cells challenged with H2O2 (L6 cells; Pre-incubated, 1 nM, control 61.10): 95.15 ± 0.99
protection against H2O2 induced cellular oxidative damage (L6 cells; [5]): potent protection

Insulin: reference line in the L6-myotubes glucose consumption table
Anti-diabetic activity (glucose consumption) (L6-myotubes; Insulin line, concentration not given): 3.70 ± 0.15
